In publication PMC7279038, “Antioxidant and Neuroprotective Effects Induced by Cannabidiol and Cannabigerol in Rat CTX-TNA2 Astrocytes and Isolated Cortexes” (International Journal of Molecular Sciences, 2020):

Tests used:
[1] = target: T1, BChE (butyrylcholinesterase) (Equus caballus, UniProt P81908); assay: BChE inhibition, colorimetric cholinesterase assay; type: biochemical, horse; details: mean ± S.D., n = 3
T1 construct: horse serum butyrylcholinesterase, EC 3.1.1.8, Sigma Aldrich S.r.L; purchased Sigma Aldrich S.r.L; host or cells: horse serum
T1 sequence (P81908 whole entry): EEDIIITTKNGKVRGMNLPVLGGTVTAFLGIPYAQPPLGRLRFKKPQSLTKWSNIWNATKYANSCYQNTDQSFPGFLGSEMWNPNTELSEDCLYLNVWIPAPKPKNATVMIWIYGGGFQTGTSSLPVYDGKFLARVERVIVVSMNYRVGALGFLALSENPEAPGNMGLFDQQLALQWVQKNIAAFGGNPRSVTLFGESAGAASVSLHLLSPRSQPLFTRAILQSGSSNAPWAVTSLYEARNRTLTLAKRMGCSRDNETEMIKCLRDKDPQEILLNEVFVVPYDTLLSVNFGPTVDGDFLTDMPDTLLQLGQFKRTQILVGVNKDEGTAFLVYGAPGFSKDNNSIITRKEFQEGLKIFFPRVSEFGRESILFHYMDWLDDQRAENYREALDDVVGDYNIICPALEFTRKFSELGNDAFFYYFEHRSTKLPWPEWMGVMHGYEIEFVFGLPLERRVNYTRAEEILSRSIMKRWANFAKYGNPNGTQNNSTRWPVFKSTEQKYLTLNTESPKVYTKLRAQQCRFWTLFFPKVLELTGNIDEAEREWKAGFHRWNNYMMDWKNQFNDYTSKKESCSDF

[2] = test system: isolated rat prefrontal cortex, nitrite; assay: H2O2-induced nitrite level in isolated cortexes (Griess assay); details: hydrogen peroxide 300 µM; for inhibition of H2O2-induced increase in nitrite level: 1–1000 nM
Method: (§1) Sprague–Dawley rats (200–250 g) were sacrificed by CO2 inhalation and isolated prefrontal cortex specimens were immediately explanted and exposed to 300 µM H2O2 and different concentrations of CBD (1–1000 nM) and CBG (1–1000 nM) for one hour, at 37 °C. The nitrite concentration in the resuspension buffer was determined by colorimetric Griess assay. Specifically, cortex specimens were homogenized for 2 min with Potter–Elvehjem homogenizer in 2 mL DMEM buffer. The homogenate was centrifuged at 4500 g for 10 min and nitrite production was determined in the supernatant fraction by mixing 50 µL of the assay buffer with 50 µL of Griess reagent (1.5% sulfanilamide in 1M HCl plus 0.15% N-(1-naphthyl) ethylenediamine dihydrochloride in distilled water, v/v). After 10 min incubation at room temperature, the absorbance at 540 nm was determined and nitrite concentrations were calculated from a sodium nitrite standard curve. All measurements were performed in triplicate.

[3] = test system: isolated rat prefrontal cortex, 5-HT; assay: H2O2-induced reduction in 5-HT level in isolated cortexes; details: hydrogen peroxide 300 µM; CBD 1000 nM, CBG 1 nM
Method: as §1, with “All measurements were performed in triplicate.” left out
Tissue 3-HK, 5-HT and 5HIIA levels were analyzed through an HPLC apparatus consisting of a Jasco (Tokyo, Japan) PU-2080 chromatographic pump and an ESA (Chelmsford, MA, USA) Coulochem III coulometric detector, equipped with a microdialysis cell (ESA-5014b), a porous graphite working electrode and a solid state palladium reference electrode. The analytical conditions for identification and quantification were selected according to previous studies. […]

[4] = test system: isolated rat cortexes, kynurenic acid (KA); assay: K+ 60 mM neurotoxicity paradigm, kynurenic acid level; details: for effect on K+ 60 mM-induced reduction in kynurenic acid (KA) level: CBD 1000 nM, CBG 1 nM
Method: (§2) Sprague–Dawley rats (200–250 g) were sacrificed by CO2 inhalation (Italian Health Ministry authorization N. F4738.N.XTQ, delivered on 11th November 2018) and isolated prefrontal cortex specimens were immediately explanted and incubated in thermostatic shaking bath at 37 °C for 1 h (incubation period), in Krebs–Ringer buffer at the following K^+ concentrations:
Cortexes were stimulated with CBD (1000 nM) and […]. Afterwards, specimens were homogenized in perchloric acid solution (0.05 M) for the extraction and quantification of nitrites, via the aforementioned colorimetric Griess assay, and serotonin (5-HT), 5-hydroxyindoleacetic (5HIIA),3-hydroxykinurenine (3-HK) and kinurenic acid (KA) (ng/mg wet tissue) via high performance liquid chromatography analysis. Additionally, an untargeted proteomic analysis was carried out on the cortex homogenate. The analytical protocols for 5-HT, 5HIIA, 3-HK, KA and protein level determinations are described below. The analyses were conducted in triplicate and in independent facilities with blind modality.
The KA quantitative determination was performed by using a liquid chromatograph (MOD. 1525, Waters Corporation, Milford MA, USA) equipped with a fluorimetric detector (MOD. 2475, Waters Corporation), a C18 reversed-phase column (AcclaimTM 120, 3 µm, 2.1 × 100 mm, Dionex Corporation, Sunnyvale, CA, USA), and an online degasser (Biotech 4-CH degasi compact, LabService, Anzola Emilia, Italy). The separation was conducted in isocratic conditions and the mobile phase consisted of 250 mM zinc acetate, 50 mM sodium acetate, and 3% acetonitrile (pH adjusted to 6.2 with glacial acetic acid), using a flow rate of 1.0 mL/min. In the eluate, the KA was identified and measured fluorimetrically (excitation: 344 nm; emission: 398 nm).

[5] = Ferric reducing antioxidant power (FRAP); details: mean ± S.D., n = 3
Method: For the ferric reducing antioxidant power (FRAP) activity assay, sample solution was added to premixed FRAP reagent (2 mL) containing acetate buffer (0.3 M, pH 3.6), 2,4,6-tris(2-pyridyl)-S-triazine (TPTZ) (10 mM) in 40 mM HCl and ferric chloride (20 mM) in a ratio of 10:1:1 (v/v/v). Then, the sample absorbance was read at 593 nm after a 30 min incubation at room temperature. FRAP activity was expressed as IC50 values.

[6] = test system: isolated rat cortexes, 5HIIA/5-HT ratio; assay: K+ 60 mM neurotoxicity paradigm, 5-HT turnover; details: CBD 1000 nM, CBG 1 nM
Method: as §2
Cortexes were stimulated with CBD (1000 nM) and CBD (1 nM). Afterwards, specimens were homogenized in perchloric acid solution (0.05 M) for the extraction and quantification of nitrites, via the aforementioned colorimetric Griess assay, and serotonin (5-HT), 5-hydroxyindoleacetic (5HIIA),3-hydroxykinurenine (3-HK) and kinurenic acid (KA) (ng/mg wet tissue) via high performance liquid chromatography analysis. […]
Tissue 3-HK, 5-HT and 5HIIA levels were analyzed through an HPLC apparatus consisting of a Jasco (Tokyo, Japan) PU-2080 chromatographic pump and an ESA (Chelmsford, MA, USA) Coulochem III coulometric detector, equipped with a microdialysis cell (ESA-5014b), a porous graphite working electrode and a solid state palladium reference electrode. The analytical conditions for identification and quantification were selected according to previous studies. […] The chromatograms were monitored at the analytical detector 2. […] Sample concentrations were calculated by linear regression curve (y = bx + m) obtained with standard. […]

SMILES	IC50 [1] [µM]	inhibition of H2O2-induced increase in nitrite level [2]	effect on H2O2-induced 5-HT depletion [3]	effect on K+ 60 mM-induced reduction in kynurenic acid (KA) level [4]	IC50 [5] [µM]	effect on K+ 60 mM-induced increase in 5-HT turnover (5HIIA/5-HT ratio) [6]	concentration of maximal inhibition of nitrite production ([2]; tested 1–1000 nM) [nM]	KA level ([4]; basal conditions only)
C=C(C)[C@@H]1CCC(C)=C[C@H]1c1c(O)cc(CCCCC)cc1O [CBD, Cannabidiol]	1880 ± 110	inhibit such an increase at all the tested concentrations	blunting effect on 5-HT depletion	successful in blunting	> 2000	able to prevent the 5-HT depletion	–	–
CCCCCc1cc(O)c(C/C=C(\C)CCC=C(C)C)c(O)c1 [CBG, cannabigerol]	1480 ± 110	significant at the two lowest tested concentrations only	same effect at the concentration of 1 nM	completely ineffective	> 2000	able to prevent the 5-HT depletion	1	increase KA levels
